According to patent publication US5942494A, “Stimulation of gene expression and synthesis of heat shock protein 72/73 (HSP 70)” (The Trustees of Columbia University in the City of New York, priority 1996, dated 1999):
Square brackets hold non-standard residues; d marks the D form. Peptide text beside a SMILES is read from it. Nle = CCCC[C@H](N)C(=O)O

Columns and labels:
Hsp70 [1] = assay: Hsp70 levels by denaturing immunoprecipitation of [3H]-leucine radiolabeled HepG2 cells; format: cell-based, human; conditions: for Hsp70 levels after removal of ALLN: 4-hour preincubation
Protocol: The HepG2 cell culture conditions were maintained as previously described (Dixon, et al., 1991). The cells were seeded into collagen-pre-coated dishes or six-well tissue culture plates and grown in complete medium containing minimum essential medium (MEM) with 0.1 mM nonessential amino acids, 1.0 mM sodium pyruvate, penicillin/streptomycin, and 10% fetal bovine serum. Cells were fed fresh complete medium every 3 days and maintained in a 5% CO2 incubator. All experiments were performed by using exponentially growing cells at 90-95% confluency. For heat shock treatment, the dishes were sealed with Parafilm and immersed in a water bath at 42° C. for indicated durations of time. Cells were incubated with ALLN alone at indicated concentrations or combined with other chemicals at 37° C. Cells were also incubated with different protease inhibitors alone at indicated concentrations or combined with other chemicals at 37° C.
HepG2 cells were preincubated for 4 hours in serum-free MEM and then radiolabeled with ^3 H-Leucine (150 μCi/ml) in a serum-free, leucine-free medium. Preincubation and labeling media each contained either 1.5% bovine serum albumin (BSA) alone, or BSA plus ALLN (40 μg/ml except as otherwise indicated), or BSA plus other protease inhibitors at concentrations indicated in the figure legends. At the indicated times, cells were removed from the 37° C. incubator and placed on ice, washed with cold phosphate-buffer saline (PBS) twice and lysed with lysis buffer containing 1% Triton X-100 (TX100), 1% deoxycholic acid (DOC) and 0.1% SDS in PBS containing proteinase inhibitors: 2 mM phenylmethylsulfonyl fluoride (PMSF); 2 μg/ml ALLN; 2 μg/ml leupeptin; and 2 μg/ml aprotinin. After a 30 min. incubation with lysis buffer at 4° C., the lysates were centrifuged at 14,000 g in a microcentrifuge for 5 min., and the supernatants were adjusted to 1% SDS concentration and boiled for 5 min. to denature the proteins. 1% TX100 was then added to dilute the lysates to a final concentration of 0.1% SDS. Cell lysates containing equal amounts of trichloroacetic acid (TCA)-insoluble radioactivity were used for immunoprecipitations by incubating with individual monoclonal antibody (1 μg/ml) for 2.5 hours at 4° C. Protein-A Sepharose 4B was added afterwards and the lysates incubated for another 1.5 hours at 4° C. to collect the immunocomplexes. After washing four times with 1×NET buffer (containing 0.5% TX100, 0.1% SDS), the immunocomplexes were mixed with sample buffer and boiled for 5 min. Following centrifugation, the supernatants were aliquoted for scintillation counting and for 3-15% gradient polyacrymide gel electrophoresis (SDS-PAGE) . The gels were later subjected to fluorography. All values are presented as the mean ± S.D. from three individual experiments except as otherwise indicated.
Denaturing immunoprecipitation was chosen because Hsp70 is a major cytosolic chaperone protein and it is co-immunoprecipitated with a number of other proteins under non-denaturingconditions (Beckmann, et al., 1990; Zhou, et al., 1995).

Hsp70 [2] = assay: Hsp70 level in human microvascular endothelial cell line; format: cell-based; conditions: ALLN 40 μg/ml, 4 hours, 30 min. labeling
Protocol: ALLN induces Hsp70 protein levels in HepG2 cells in a dose-dependent manner. The effect of ALLN on the protein levels of Hsp70 was analysed by denaturing immunoprecipitation of extracts of [^3 H]-leucine radiolabeled HepG2 cells which had been pre-treated with ALLN for 4 hours at different doses. Denaturing immunoprecipitation was chosen because Hsp70 is a major cytosolic chaperone protein and it is co-immunoprecipitated with a number of other proteins under non-denaturingconditions (Beckmann, et al., 1990; Zhou, et al., 1995). […] This may be due to a low constitutive level of expression of Hsp73 (Hsp70) in HepG2 cells similar to that reported for other cell types in the absence of stress (Welch, et al., 1984). Treatment with ALLN was associated with a marked increase in Hsp70 level, which was further confirmed as Hsp72 (the inducible form) by Western blot (data not shown).

Hsp86 = assay: Immunoprecipitation of Hsp86 from radiolabeled HepG2 cells; format: cell-based, human; conditions: HepG2, ALLN 4 hours
Protocol: (§1) FIGS. 7A-7B: Effects of ALLN on the biosynthesis of other members of Hsp family and related proteins. HepG2 cells were pre-treated and radiolabeled with or without ALLN for 4 hours as described in FIG. 1. Cell lysates were used for SDS-PAGE (A), or for immunoprecipitation with anti-Hsp25, -Hsp27, -Hsp60, -Hsp70, -Hsp86, -Hsp90, -Hsp104, -Bip, or -albumin antibodies respectively (1 μg/ml) (B). Because the anti-Hsp25, -Hsp27, -Hsp60 and Hsp90 antibodies are from a rat source, rabbit anti-rat IgG antibody was added after the first incubation, and the incubation was extended for another 1 hour at 4° C. before collection with protein A-Sepharose.Immunoprecipitates were loaded for SDS-PAGE and aliquoted for scintillation counting and plotting. Each value was presented as mean ±S.D. from three individual culture dishes.
(§2) HepG2 cells were preincubated for 4 hours in serum-free MEM and then radiolabeled with ^3 H-Leucine (150 μCi/ml) in a serum-free, leucine-free medium. […] Cell lysates containing equal amounts of trichloroacetic acid (TCA)-insoluble radioactivity were used for immunoprecipitations by incubating with individual monoclonal antibody (1 μg/ml) for 2.5 hours at 4° C. […]

Hsp104 = assay: Immunoprecipitation of Hsp104 from radiolabeled HepG2 cells; format: cell-based, human; conditions: HepG2, ALLN 4 hours
Protocol: as §1, §2

Bip = assay: Immunoprecipitation of Bip from radiolabeled HepG2 cells; format: cell-based, human; conditions: HepG2, ALLN 4 hours
Protocol: as §1, §2

albumin = assay: Immunoprecipitation of albumin from radiolabeled HepG2 cells; format: cell-based, human; conditions: HepG2, ALLN 4 hours
Protocol: as §1, §2

[3] = tested on: protein of about 80-90 kDa; assay: Whole-cell protein pattern of [3H]-leucine-labeled HepG2 lysates on SDS-PAGE; format: cell-based, human; conditions: ALLN-treated versus control HepG2 cells, FIG. 2A
Excerpt: It was reported (Liu, et al., 1989) that in human diploid fibroblasts, heat shock treatment could induce the synthesis of several members of the Hsp family, including Hsp25, Hsp50, Hsp64, Hsp72, Hsp78, Hsp89 and Hsp98. Short, sublethal episodes of cardiac ischemia increase both Hsp70 and Hsp60 (Marber, et al., 1988). Such complex induction patterns may reflect an increased requirement for several of these Hsps, i.e., the need for several of these Hsps to increase, in order to prevent or protect pre-existing proteins from denaturation. […] It would be interesting to characterize this polypeptide and to identify its roles in the ALLN-induced cellular response.

proteasomes = conditions: Rock, et al., 1994; cited from earlier work
apoB = conditions: Sakata, et al., 1993, unpublished data; cited from earlier work

CCCC[C@@H](C=O)NC(=O)[C@H](CC(C)C)NC(=O)[C@H](CC(C)C)NC(C)=O [ALLN, N-acetyl-leucyl-leucyl-norleucinal] (Ac-Leu-Leu-[Nle]-aldehyde)
Hsp70 levels after removal of ALLN (Hsp70 [1]; end of a 2-hour wash): 25 fold
Hsp70 levels after removal of ALLN (Hsp70 [1]; end of a 6-hour wash): 8 fold
Hsp70 levels after removal of ALLN (Hsp70 [1]; end of an 8-hour wash): 4 fold
Increment of newly synthesized Hsp70 levels compared with untreated cells (Hsp70 [1]; 30 min. labeling, data from several experiments): ~30 fold
Hsp70 levels induced (Hsp70 [1]; ALLN 10 μg/ml, 4 hours pre-treatment, HepG2): more than 9 fold
Increase of rate of incorporation of [3H]-leucine into Hsp70 (Hsp70 [1]; ALLN 40 μg/ml 4 hours preincubation, labeling 10-60 min, every time point): about 25 fold
Induction of Hsp70 by protease inhibitors (Hsp70 [1]; HepG2, 4 hours pre-treatment, ALLN, ALLM 40 μg/ml, leupeptin, pepstatin A 50 μg/ml, E-64d 25 μg/ml, PMSF 1 mM, aprotinin 100 KIU/ml, Benz 1 mM, CIP 200 μM): significantly induce
Induction of Hsp70 levels above baseline (Hsp70 [1]; HepG2 cells and human endothelial cells, maximal induction): up to 30 fold
Increment of Hsp70 level (Hsp70 [2]): 35 fold
Effect on Hsp86 (Hsp86): no effects
Effect on Hsp104 (Hsp104): no effects
Effect on Bip (Bip): no effects
Effect on albumin (albumin): no effects
Synthesis of a protein of about 80-90 kDa [3]: also increased
Inhibition of proteasomes (proteasomes): potent inhibitors
Protection of apoB (apoB): protected
